Measured values: patent publication US12151991B2, “Use of a substituted thiazolidine compound as nitrification inhibitor” (BASF SE, priority 2018, dated 2024)

Test system: nitrification
Assay: Inhibition of nitrification in soil incubation test (ammonium and nitrate content after 14 days)
Details: 100 g soil, 10 mg ammonium sulfate-N, 20° C., 0 and 14 days; for NI* @ 3%: compound at 3% (of nitrogen N); for NI* @ 0.3%: compound at 0.3% (of nitrogen N); for NI* @ 1%: compound at 1% (of nitrogen N)
Experimental: The compounds of the invention have been tested as follows in terms of the inhibition of nitrification:
100 g soil is filled into 500 ml plastic bottles (e.g. soil sampled from the field) and is moistened to 50% water holding capacity. The soil is incubated at 20° C. for two weeks to activate the microbial biomass. 1 ml test solution, containing the compound in the appropriate concentration (usually 0.3 or 1% of nitrogen N), or DMSO and 10 mg nitrogen in the form of ammonium sulfate-N is added to the soil and everything mixed well. Bottles are capped but loosely to allow air exchange. The bottles are then incubated at 20° C. for 0 and 14 days.
For analysis, 300 ml of a 1% K2SO4-solution is added to the bottle containing the soil and shaken for 2 hours in a horizontal shaker at 150 rpm. Then the whole solution is filtered through a filter (Macherey-Nagel Filter MN 807%). Ammonium and nitrate content is then analyzed in the filtrate in an autoanalyzer at 550 nm (Merck, AA11).
The inhibition (NI @ a specified concentration) is calculated as follows: […]

Structure (SMILES)	NI* @ 3%	NI* @ 0.3%	NI* @ 1%
CC1(C)CSC(=S)N1 [Cmpd. 6, 4,4-Dimethyl-2-thiazolidinethione]	57.5	–	–
O=C(Cc1ccccc1)N1CCSC1=S [Cmpd. 3, 3-(Phenylacetyl)-2-thiazolidinethione]	71.1	26.6	55.3
O=C(c1ccc(Cl)cc1)N1CCSC1=S [Cmpd. 5, 3-(4-Chlorobenzoyl)-2-thiazolidinethione]	67	–	30.7
O=C(c1cccc(Br)c1)N1CCSC1=S [Cmpd. 9, 3-(3-Bromobenzoyl)-2-thiazolidinethione]	49	–	–
COc1ccc(C(=O)N2CCSC2=S)cc1 [Cmpd. 7, 3-(4-Methoxybenzoyl)-2-thiazolidinethione]	57.4	19.8	27.5
Cc1c(C(=O)N2CCSC2=S)oc2ccccc12 [Cmpd. 12, 3-[(3-Methyl-2-benzofuranyl)carbonyl]-2-thiazolidinethione]	39	–	–
O=C(c1ccccc1)N1CCSC1=S [Cmpd. 10, 3-Benzoyl-2-thiazolidinethione]	48.4	–	–
CN1CCSC1=S [Cmpd. 11, 3-Methyl-2-thiazolidinethione]	39.9	–	–
CC(=O)N1CCSC1=S [Cmpd. 4, 3-Acetylthiazolidine-2-thione]	68.7	–	32.3
COc1cccc(C(=O)N2CCSC2=S)c1 [Cmpd. 2, 3-(3-Methoxybenzoyl)-2-thiazolidinethione]	67.9	34.8	73.1
COc1ccc(C(=O)N2CCSC2=S)cc1OC [Cmpd. 8, 3-(3,4-Dimethoxybenzoyl)-2-thiazolidinethione]	55	–	–
S=C1NCCS1 [Cmpd. 1, 1,3-Thiazolidine-2-thione]	83.5	–	47
